Test results from patent US6413935B1, “Induction of immune response against desired determinants” (priority 1993, dated 2002).
Several values for one entry are separate records, joined by “and”; a condition that tells them apart may be missing. Equal entries are not always repeated. Where two headings read alike, the source gives them in different places. Non-standard residues stand in square brackets, D forms with d. Residues, ends and D or L forms follow the SMILES beside them. Cha = N[C@@H](CC1CCCCC1)C(=O)O

Legend:
DQ3.1 = conditions: read-out: PADRE Class II Binding Affinities; Table VIII A
DR5 = conditions: read-out: PADRE Class II Binding Affinities DR5
DR7 = conditions: read-out: PADRE Class II Binding Affinities DR7
human PBMC T cell lines = assay type: cell-based
DR2w2a = DR2w2a (Homo sapiens, UniProt P01903+Q30154); experiment: biochemical; conditions: PADRE Class II Binding Affinities DR2w282, Table IX
DR2w2a, sequence (P01903 26-254): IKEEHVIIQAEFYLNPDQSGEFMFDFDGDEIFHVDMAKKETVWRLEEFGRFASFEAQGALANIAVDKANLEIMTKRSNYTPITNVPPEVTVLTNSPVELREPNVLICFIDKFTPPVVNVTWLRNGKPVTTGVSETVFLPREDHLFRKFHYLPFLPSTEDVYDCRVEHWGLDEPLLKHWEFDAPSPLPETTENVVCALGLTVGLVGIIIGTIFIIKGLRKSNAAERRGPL
DR2w2a, sequence (Q30154 30-266): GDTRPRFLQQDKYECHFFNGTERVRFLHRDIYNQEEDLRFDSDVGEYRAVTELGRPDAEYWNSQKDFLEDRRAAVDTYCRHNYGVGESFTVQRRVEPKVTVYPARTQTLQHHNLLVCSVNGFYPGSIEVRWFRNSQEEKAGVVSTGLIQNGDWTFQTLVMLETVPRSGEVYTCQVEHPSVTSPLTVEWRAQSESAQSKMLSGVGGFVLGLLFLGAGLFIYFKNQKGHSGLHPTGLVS

DR1 = DR1 (Homo sapiens, UniProt P01903+P01911, A100R/D57E/F55L/F60I/F76Y/I96L/L162R/M171V/P40L/Q125E/R42F/V115G/Y59C); experiment: biochemical; conditions: PADRE Class II Binding Affinities DR1, Table IX

Row | SMILES | IC50 (DQ3.1) | IC50 (DR5; Table VIII A) | IC50 (DR7; Table VIII A) | other results
1 | CC(C)C[C@H](NC(=O)[C@@H](NC(=O)[C@@H](NC(=O)[C@H](C)NC(=O)[C@H](C)NC(=O)[C@H](C)NC(=O)[C@H](CC1CCCCC1)NC(=O)[C@H](C)NC(=O)[C@@H](C)N)C(C)C)[C@@H](C)O)C(=O)N[C@@H](CCCCN)C(=O)N[C@@H](C)C(=O)N[C@@H](C)C(=O)N[C@H](C)C(N)=O [Peptide 906.26] (H-[dA]A[Cha]AAAVTLKAA[dA]-NH2; N-terminus and C-terminus assumed) | 27.9 nM | 3.9 nM | 65.8 nM | –
2 | CC(C)C[C@H](NC(=O)[C@@H](NC(=O)[C@H](Cc1ccccc1)NC(=O)[C@H](C)NC(=O)[C@H](C)NC(=O)[C@H](C)NC(=O)[C@H](CC1CCCCC1)NC(=O)[C@H](C)NC(=O)[C@@H](C)N)[C@@H](C)O)C(=O)N[C@@H](CCCCN)C(=O)N[C@@H](C)C(=O)N[C@@H](C)C(=O)N[C@H](C)C(N)=O [Peptide 906.27] | 44.1 nM | 2.6 nM | 65.8 nM | –
3 | CC(C)C[C@H](NC(=O)[C@@H](NC(=O)[C@@H](NC(=O)[C@H](C)NC(=O)[C@H](C)NC(=O)[C@H](C)NC(=O)[C@H](CC1CCCCC1)NC(=O)[C@H](C)NC(=O)[C@@H](C)N)[C@@H](C)O)[C@@H](C)O)C(=O)N[C@@H](CCCCN)C(=O)N[C@@H](C)C(=O)N[C@@H](C)C(=O)N[C@H](C)C(N)=O [Peptide 906.28] | 28.5 nM | 5 nM | 69.4 nM | –
4 | C[C@H](NC(=O)[C@H](C)NC(=O)[C@H](C)NC(=O)[C@H](CC1CCCCC1)NC(=O)[C@H](C)NC(=O)[C@@H](C)N)C(=O)N[C@@H](C)C(=O)N[C@H](C(=O)N[C@@H](CCC(N)=O)C(=O)N[C@@H](CCCCN)C(=O)N[C@@H](C)C(=O)N[C@@H](C)C(=O)N[C@H](C)C(N)=O)[C@@H](C)O [Peptide 906.31] | 52.6 nM | 11.8 nM | 100 nM | –
5 | CC(C)[C@H](NC(=O)[C@@H](NC(=O)[C@H](C)NC(=O)[C@H](C)NC(=O)[C@H](C)NC(=O)[C@H](C)NC(=O)[C@H](CC1CCCCC1)NC(=O)[C@H](C)NC(=O)[C@@H](C)N)[C@@H](C)O)C(=O)N[C@@H](CCCCN)C(=O)N[C@@H](C)C(=O)N[C@@H](C)C(=O)N[C@H](C)C(N)=O [Peptide 906.32] | 26 nM | – | – | IC50 (DR5): 4.2 nM; IC50 (DR7): 58.1 nM
6 | C[C@H](NC(=O)[C@H](C)NC(=O)[C@H](C)NC(=O)[C@H](CC1CCCCC1)NC(=O)[C@H](C)NC(=O)[C@@H](C)N)C(=O)N[C@@H](C)C(=O)N[C@H](C(=O)N[C@@H](Cc1ccccc1)C(=O)N[C@@H](CCCCN)C(=O)N[C@@H](C)C(=O)N[C@@H](C)C(=O)N[C@H](C)C(N)=O)[C@@H](C)O [Peptide 906.33] | 13.4 nM | 2.4 nM | 43.1 nM | –
7 | CC[C@H](C)[C@H](NC(=O)[C@@H](NC(=O)[C@H](C)NC(=O)[C@H](C)NC(=O)[C@H](C)NC(=O)[C@H](C)NC(=O)[C@H](CC1CCCCC1)NC(=O)[C@H](C)NC(=O)[C@@H](C)N)[C@@H](C)O)C(=O)N[C@@H](CCCCN)C(=O)N[C@@H](C)C(=O)N[C@@H](C)C(=O)N[C@H](C)C(N)=O [Peptide 906.34] | 30.5 nM | 3.1 nM | 55.6 nM | –
8 | CC(C)C[C@H](NC(=O)[C@@H](NC(=O)[C@H](C)NC(=O)[C@H](C)NC(=O)[C@H](C)NC(=O)[C@H](C)NC(=O)[C@H](CC1CCCCC1)NC(=O)[C@H](C)NC(=O)[C@@H](C)N)[C@@H](C)O)C(=O)N[C@@H](CCCNC(=N)N)C(=O)N[C@@H](C)C(=O)N[C@@H](C)C(=O)N[C@H](C)C(N)=O [Peptide 906.39] (H-[dA]A[Cha]AAAATLRAA[dA]-NH2; N-terminus and C-terminus assumed) | 28.8 nM | – | – | IC50 (DR5): 4.3 nM; IC50 (DR7): 86.2 nM
9 | CC(C)C[C@H](NC(=O)[C@@H](NC(=O)[C@H](C)NC(=O)[C@H](C)NC(=O)[C@H](C)NC(=O)[C@H](C)NC(=O)[C@H](CC1CCCCC1)NC(=O)[C@H](C)NC(=O)[C@@H](C)N)[C@@H](C)O)C(=O)N[C@@H](CCCCN)C(=O)N[C@@H](CCCCN)C(=O)N[C@@H](C)C(=O)N[C@H](C)C(N)=O [Peptide 906.40] (H-[dA]A[Cha]AAAATLKKA[dA]-NH2; N-terminus and C-terminus assumed) | 36.6 nM | 16.7 nM | 556 nM | –
10 | CC(C)C[C@H](NC(=O)[C@@H](NC(=O)[C@H](C)NC(=O)[C@H](C)NC(=O)[C@H](C)NC(=O)[C@H](C)NC(=O)[C@H](CC1CCCCC1)NC(=O)[C@H](C)NC(=O)[C@@H](C)N)[C@@H](C)O)C(=O)N[C@@H](CCCCN)C(=O)N[C@H](C(=O)N[C@@H](C)C(=O)N[C@H](C)C(N)=O)C(C)C [Peptide 906.43] (H-[dA]A[Cha]AAAATLKVA[dA]-NH2; N-terminus and C-terminus assumed) | 24.7 nM | 9.5 nM | 49 nM | –
11 | CC[C@H](C)[C@H](NC(=O)[C@H](CCCCN)NC(=O)[C@H](CC(C)C)NC(=O)[C@@H](NC(=O)[C@H](C)NC(=O)[C@H](C)NC(=O)[C@H](C)NC(=O)[C@H](C)NC(=O)[C@H](CC1CCCCC1)NC(=O)[C@H](C)NC(=O)[C@@H](C)N)[C@@H](C)O)C(=O)N[C@@H](C)C(=O)N[C@H](C)C(N)=O [Peptide 906.45] (H-[dA]A[Cha]AAAATLKIA[dA]-NH2; N-terminus and C-terminus assumed) | 56.2 nM | 28.2 nM | 25 nM | –
12 | CC(C)C[C@H](NC(=O)[C@@H](NC(=O)[C@H](C)NC(=O)[C@H](C)NC(=O)[C@H](C)NC(=O)[C@H](C)NC(=O)[C@H](CC1CCCCC1)NC(=O)[C@H](C)NC(=O)[C@@H](C)N)[C@@H](C)O)C(=O)N[C@@H](CCCCN)C(=O)N[C@@H](C)C(=O)N[C@@H](CCC(N)=O)C(=O)N[C@H](C)C(N)=O [Peptide 906.48] (H-[dA]A[Cha]AAAATLKAQ[dA]-NH2; N-terminus and C-terminus assumed) | 18.4 nM | 20 nM | 96.2 nM | –
13 | CC(C)C[C@H](NC(=O)[C@@H](NC(=O)[C@H](C)NC(=O)[C@H](C)NC(=O)[C@H](C)NC(=O)[C@H](C)NC(=O)[C@H](CC1CCCCC1)NC(=O)[C@H](C)NC(=O)[C@@H](C)N)[C@@H](C)O)C(=O)N[C@@H](CCCCN)C(=O)N[C@@H](C)C(=O)N[C@H](C(=O)N[C@H](C)C(N)=O)C(C)C [Peptide 906.49] (H-[dA]A[Cha]AAAATLKAV[dA]-NH2; N-terminus and C-terminus assumed) | 14.6 nM | 4.5 nM | 28.4 nM | –
14 | CC(C)C[C@H](NC(=O)[C@@H](NC(=O)[C@H](CCCCN)NC(=O)[C@H](C)NC(=O)[C@H](C)NC(=O)[C@@H](NC(=O)[C@H](CC1CCCCC1)NC(=O)[C@H](CCCCN)NC(=O)[C@@H](C)N)C(C)C)[C@@H](C)O)C(=O)N[C@@H](CCCCN)C(=O)N[C@@H](C)C(=O)N[C@@H](C)C(=O)N[C@H](C)C(N)=O [Peptide 965.14] | – | – | – | Donors with significant (>10,000 cpm) T cell response / donors tested, second stimulation (human PBMC T cell lines): 1/5; Donors with significant (>10,000 cpm) T cell response / donors tested, third stimulation (human PBMC T cell lines): 3/5; IC50 (DR5; Table IX): 34.5 nM
15 | CC(C)C[C@H](NC(=O)[C@@H](NC(=O)[C@H](C)NC(=O)[C@H](C)NC(=O)[C@H](C)NC(=O)[C@@H](NC(=O)[C@H](CC1CCCCC1)NC(=O)[C@H](CCCCN)NC(=O)[C@@H](C)N)C(C)C)[C@@H](C)O)C(=O)N[C@@H](CCCCN)C(=O)N[C@@H](C)C(=O)N[C@@H](C)C(=O)N[C@H](C)C(N)=O [Peptide 965.16] | – | – | – | Donors with significant (>10,000 cpm) T cell response / donors tested, second stimulation (human PBMC T cell lines): 0/5; Donors with significant (>10,000 cpm) T cell response / donors tested, third stimulation (human PBMC T cell lines): 1/5
16 | CSCC[C@H](NC(=O)[C@@H](NC(=O)[C@H](CC1CCCCC1)NC(=O)[C@H](CCCCN)NC(=O)[C@@H](C)NC(=O)[C@H](CO)NC(=O)[C@H](CO)NC(=O)[C@@H](N)CCCCN)C(C)C)C(=O)N[C@@H](C)C(=O)N[C@@H](C)C(=O)N[C@H](C(=O)N[C@@H](CC(C)C)C(=O)N[C@@H](CCCCN)C(=O)N[C@@H](C)C(=O)N[C@@H](C)C(=O)N[C@H](C)C(N)=O)[C@@H](C)O [Peptide 965.19] | – | – | – | IC50 (DR2w2a): 23.5 nM
17 | CC(C)C[C@H](NC(=O)[C@@H](NC(=O)[C@H](Cc1c[nH]c2ccccc12)NC(=O)[C@H](C)NC(=O)[C@H](CCCCN)NC(=O)[C@@H](NC(=O)[C@H](CC1CCCCC1)NC(=O)[C@H](CCCCN)NC(=O)[C@@H](C)N)C(C)C)[C@@H](C)O)C(=O)N[C@@H](CCCCN)C(=O)N[C@@H](C)C(=O)N[C@@H](C)C(=O)N[C@H](C)C(N)=O [Peptide 965.021] | – | – | – | IC50 (DR5; Table IX): 4.1 nM; IC50 (DR5; Table IX, listed as 965.022): 1.1 nM; IC50 (DR2w2a): 5.7 nM and 9 nM; IC50 (DR1): 0.8 nM and 0.7 nM; IC50 (DR7; Table IX): 89.3 nM; IC50 (DR7; Table IX, listed as 965.022): 338 nM
18 | CC(C)C[C@H](NC(=O)[C@@H](NC(=O)[C@H](CC(N)=O)NC(=O)[C@H](C)NC(=O)[C@H](C)NC(=O)[C@@H](NC(=O)[C@H](CC1CCCCC1)NC(=O)[C@H](CCCCN)NC(=O)[C@@H](C)N)C(C)C)[C@@H](C)O)C(=O)N[C@@H](CCCCN)C(=O)N[C@@H](C)C(=O)N[C@@H](C)C(=O)N[C@H](C)C(N)=O [Peptide 965.081] | – | – | – | Donors with significant (>10,000 cpm) T cell response / donors tested, second stimulation (human PBMC T cell lines): 1/5; Donors with significant (>10,000 cpm) T cell response / donors tested, third stimulation (human PBMC T cell lines): 2/5; IC50 (DR5; Table IX, listed as 965.082): 12.5 nM
